Experiments:
human calcium receptor = biological target: T1, human calcium receptor (Homo sapiens, UniProt P41180); assay: Evaluation of antagonistic action on calcium receptor using reporter gene (luciferase); assay type: cell-based; settings: transformed rat adrenal derived cells, 5 mM calcium chloride, culture 4 hrs, luciferase activity; read-out: Reporter gene assay (IC50, concentration showing 50% inhibitory rate)
T1 construct: expressed in transfected cells; host or cells: cell strain derived from rat adrenal, co-transformed with luciferase cDNA
T1 sequence (P41180 20-1078): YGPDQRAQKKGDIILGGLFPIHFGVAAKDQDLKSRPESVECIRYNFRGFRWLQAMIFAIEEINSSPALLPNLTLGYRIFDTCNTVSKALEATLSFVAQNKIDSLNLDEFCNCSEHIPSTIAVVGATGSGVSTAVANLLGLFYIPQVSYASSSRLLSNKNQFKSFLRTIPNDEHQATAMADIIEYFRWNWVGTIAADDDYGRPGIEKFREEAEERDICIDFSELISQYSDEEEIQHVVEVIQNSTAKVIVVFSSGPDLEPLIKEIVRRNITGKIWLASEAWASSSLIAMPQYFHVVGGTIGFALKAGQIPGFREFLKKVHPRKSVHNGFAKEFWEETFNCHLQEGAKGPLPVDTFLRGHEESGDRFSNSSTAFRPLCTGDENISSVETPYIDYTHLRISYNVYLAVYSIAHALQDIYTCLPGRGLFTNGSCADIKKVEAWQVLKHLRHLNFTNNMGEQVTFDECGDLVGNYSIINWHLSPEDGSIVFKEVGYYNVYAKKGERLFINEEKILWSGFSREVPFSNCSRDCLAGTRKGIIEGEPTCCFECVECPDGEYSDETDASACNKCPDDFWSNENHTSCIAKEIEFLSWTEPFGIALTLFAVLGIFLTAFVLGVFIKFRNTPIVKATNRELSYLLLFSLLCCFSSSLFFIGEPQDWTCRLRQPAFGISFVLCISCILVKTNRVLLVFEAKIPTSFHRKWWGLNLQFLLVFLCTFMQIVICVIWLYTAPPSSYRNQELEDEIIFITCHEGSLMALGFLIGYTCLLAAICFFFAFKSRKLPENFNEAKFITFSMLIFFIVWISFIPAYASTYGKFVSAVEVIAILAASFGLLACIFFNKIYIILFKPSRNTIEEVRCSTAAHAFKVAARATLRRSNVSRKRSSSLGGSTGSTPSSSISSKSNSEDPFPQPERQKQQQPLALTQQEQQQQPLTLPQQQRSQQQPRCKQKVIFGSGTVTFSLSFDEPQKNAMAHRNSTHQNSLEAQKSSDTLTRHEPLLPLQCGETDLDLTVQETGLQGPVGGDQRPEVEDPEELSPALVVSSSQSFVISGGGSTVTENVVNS
Method in brief: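 Rat adrenal-derived cells transfected with luciferase and human calcium receptor cDNA, in F12 with 0.5% dialyzed horse serum and 0.25% dialyzed fetal bovine serum. Luciferase luminescence gave % inhibition vs control and blank; IC50 at 50% inhibition.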

CYP2D6 = biological target: T2, CYP2D6 (Homo sapiens, UniProt P10635); assay: Metabolic enzyme CYP2D6 inhibitory activity (inhibition measurement kit); assay type: in vitro ADME; settings: enzyme activity free of test compound as 100%; >10 means over 10 μM
T2 construct: purchased BD Bioscience
T2 sequence (P10635 whole entry): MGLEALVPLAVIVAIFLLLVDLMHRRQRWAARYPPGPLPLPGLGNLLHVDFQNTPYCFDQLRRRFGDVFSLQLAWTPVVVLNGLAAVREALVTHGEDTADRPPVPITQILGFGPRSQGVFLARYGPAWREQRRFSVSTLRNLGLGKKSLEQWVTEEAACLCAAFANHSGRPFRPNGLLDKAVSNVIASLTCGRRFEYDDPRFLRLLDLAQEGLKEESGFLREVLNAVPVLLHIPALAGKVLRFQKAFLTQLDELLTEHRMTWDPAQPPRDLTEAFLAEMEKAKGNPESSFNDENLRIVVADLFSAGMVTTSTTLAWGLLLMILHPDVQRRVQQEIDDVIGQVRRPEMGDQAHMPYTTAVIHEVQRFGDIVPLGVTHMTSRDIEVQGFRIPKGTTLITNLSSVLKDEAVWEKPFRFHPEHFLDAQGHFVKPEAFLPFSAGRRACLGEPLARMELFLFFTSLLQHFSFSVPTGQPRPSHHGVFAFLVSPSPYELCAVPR
Experimental: Using a metabolic enzyme CYP2D6 inhibition measurement kit (BD Bioscience) and following the manual of the kit, the inhibitory activity of the test compound was measured. With the enzyme activity free of the test compound as 100%, the concentration (IC50) showing 50% inhibition was determined. The results are shown in Table 63 and Table 64, wherein “>10” means over 10 μM.

PTH secretion = PTH secretion action, Experimental Example 2 (serum PTH after oral administration); assay type: in vivo, male SD rats; settings: test compound administration group, 1 mg/5 ml/kg oral, rats fasted 20 hr
Experimental: The test compound was orally administered to 5 to 9-week-old male SD rats (Charles River Japan, Inc.) fasted for 20 hr, using a solvent (0.5% methyl cellulose solution) at a dose of 1 mg/5 ml/kg. A solvent alone was orally administered to the control group at a dose of 5 ml/kg. The blood was drawn from the tail vein immediately before and, 15 min, 30 min, 60 min and 120 min after the administration of the test compound, and serum was obtained. The serum PTH concentration was measured using rat PTH ELISA kit (Amersham Biosciences).

Compound	IC50 (human calcium receptor) [nM]	other results
COc1cc(-c2ccccc2[C@@H](C)OC[C@H](O)CNC(C)(C)Cc2ccc(C)c(F)c2)ccc1C(=O)O [Example 1-80, 2′-[1-[(2R)-3-[[1-(3-fluoro-4-methylphenyl)-2-methylpropan-2-yl]amino]-2-hydroxypropoxy]ethyl]-3-methoxybiphenyl-4-carboxylic acid]	27	IC50 (CYP2D6): > 10000 nM
Cc1ccc(CC(C)(C)NC[C@@H](O)CO[C@H](C)c2ccccc2-c2ccc(C(=O)O)c(Cl)n2)cc1F [Example 1-39, 2-chloro-6-[2-[1-[(2R)-3-[[1-(3-fluoro-4-methylphenyl)-2-methylpropan-2-yl]amino]-2-hydroxypropoxy]ethyl]phenyl]pyridine-3-carboxylic acid]	12	IC50 (CYP2D6): > 10000 nM
Cc1cc(-c2ccccc2[C@@H](C)OC[C@H](O)CNC(C)(C)Cc2ccc(Cl)c(F)c2)ccc1C(=O)O [Example 1-2, 2′-[(1R)-[(2R)-3-[[1-(4-Chloro-3-fluorophenyl)-2-methylpropan-2-yl]amino]-2-hydroxypropoxy]ethyl]-3-methylbiphenyl-4-carboxylic acid]	13	Serum PTH concentration 15 min later (PTH secretion): 28.5 ± 5.3 pg/mL; Serum PTH concentration 30 min later (PTH secretion): 27.1 ± 2.3 pg/mL; Serum PTH concentration 60 min later (PTH secretion): 10.5 ± 1.3 pg/mL; Serum PTH concentration 120 min later (PTH secretion): 12.4 ± 1.6 pg/mL
Cc1cc(-c2ccccc2[C@@H](C)OC[C@H](O)CNC(C)(C)Cc2ccc(Cl)cc2F)ccc1C(=O)O [Example 1-6, 2′-[1-[(2R)-3-[[1-(4-chloro-2-fluorophenyl)-2-methylpropan-2-yl]amino]-2-hydroxypropoxy]ethyl]-3-methylbiphenyl-4-carboxylic acid]	20	Serum PTH concentration 15 min later (PTH secretion): 28.9 ± 6.9 pg/mL; Serum PTH concentration 30 min later (PTH secretion): 19.2 ± 3.1 pg/mL; Serum PTH concentration 60 min later (PTH secretion): 10.0 ± 1.7 pg/mL; Serum PTH concentration 120 min later (PTH secretion): 8.3 ± 0.6 pg/mL
Cc1ccc(CC(C)(C)NC[C@@H](O)CO[C@H](C)c2ccccc2-c2ccc(C(=O)O)c(C)c2)cc1Cl [Example 1-3, 2′-[1-[(2R)-3-[[1-(3-chloro-4-methylphenyl)-2-methylpropan-2-yl]amino]-2-hydroxypropoxy]ethyl]-3-methylbiphenyl-4-carboxylic acid]	10	Serum PTH concentration 15 min later (PTH secretion): 23.8 ± 1.6 pg/mL; Serum PTH concentration 30 min later (PTH secretion): 25.1 ± 3.9 pg/mL; Serum PTH concentration 60 min later (PTH secretion): 9.5 ± 0.5 pg/mL; Serum PTH concentration 120 min later (PTH secretion): 11.6 ± 0.9 pg/mL
Cc1ccc(CC(C)(C)NC[C@@H](O)CO[C@H](C)c2ccccc2-c2ccc(C(=O)O)c(CC(C)C)c2)cc1F [Example 1-46, 2′-[1-[(2R)-3-[[1-(3-fluoro-4-methylphenyl)-2-methylpropan-2-yl]amino]-2-hydroxypropoxy]ethyl]-3-isobutylbiphenyl-4-carboxylic acid]	3	
Cc1ccc(CC(C)(C)NC[C@@H](O)CO[C@H](C)c2ccccc2-c2ccc(C(=O)O)c(C)c2)cc1C [Example 1-21, 3-methyl-2′-[1-[(2R)-3-[[1-(3,4-dimethylphenyl)-2-methylpropan-2-yl]amino]-2-hydroxypropoxy]ethyl]biphenyl-4-carboxylic acid]	13	
C[C@@H](OC[C@H](O)CNC(C)(C)Cc1ccc(Cl)c(Cl)c1)c1ccccc1-c1ccc(C(=O)O)cc1F [Example 1-67, 2′-[1-[(2R)-3-[[1-(3,4-dichlorophenyl)-2-methylpropan-2-yl]amino]-2-hydroxypropoxy]ethyl]-2-fluorobiphenyl-4-carboxylic acid]	19	
Cc1ccc(CC(C)(C)NC[C@@H](O)CO[C@H](C)c2ccccc2-c2ccc(C(=O)O)c(Cl)c2)cc1F [Example 1-72, 3-chloro-2′-[1-[(2R)-3-[[1-(3-fluoro-4-methylphenyl)-2-methylpropan-2-yl]amino]-2-hydroxypropoxy]ethyl]biphenyl-4-carboxylic acid]	15	
Cc1cc(-c2ccccc2[C@@H](C)OC[C@H](O)CNC(C)(C)Cc2ccc(Cl)c(F)c2)ccc1C(=O)O [Example 1-105]	9	

More lines, main results first:

IC50 (human calcium receptor) [nM]	Compound	other results
16	C[C@@H](OC[C@H](O)CNC(C)(C)Cc1ccc2ccccc2c1)c1ccccc1-c1ccc(C(=O)O)c(F)c1 [Example 1-59, 3-fluoro-2′-[1-[(2R)-3-[[1-(naphthalen-2-yl)-2-methylpropan-2-yl]amino]-2-hydroxypropoxy]ethyl]biphenyl-4-carboxylic acid]	IC50 (CYP2D6): > 10000 nM
21	CC(OC[C@H](O)CNC(C)(C)Cc1ccc2ccccc2c1)c1ccccc1OCc1ccccc1C(=O)O (stereo partly shown) [2-20′]	IC50 (CYP2D6): > 10000 nM
7	CCc1cc(-c2ccccc2[C@@H](C)OC[C@H](O)CNC(C)(C)Cc2ccc3ccccc3c2)ccc1C(=O)O [Example 1-30, 3-ethyl-2′-[1-[(2R)-3-[[1-(naphthalen-2-yl)-2-methylpropan-2-yl]amino]-2-hydroxypropoxy]ethyl]biphenyl-4-carboxylic acid]	Serum PTH concentration 15 min later (PTH secretion): 26.1 ± 2.3 pg/mL; Serum PTH concentration 30 min later (PTH secretion): 24.2 ± 3.3 pg/mL; Serum PTH concentration 60 min later (PTH secretion): 18.2 ± 1.3 pg/mL; Serum PTH concentration 120 min later (PTH secretion): 13.8 ± 0.6 pg/mL
4	Cc1ccc(-c2ccccc2[C@@H](C)OC[C@H](O)CNC(C)(C)Cc2ccc3ccccc3c2)cc1C(=O)O [Example 1-85, 4-methyl-2′-[1-[(2R)-3-[[1-(naphthalen-2-yl)-2-methylpropan-2-yl]amino]-2-hydroxypropoxy]ethyl]biphenyl-3-carboxylic acid]	
30	CC(OC[C@H](O)CNC(C)(C)Cc1ccc2ccccc2c1)c1ccccc1Cc1ccc(C(=O)O)cc1 (stereo partly shown) [2-14′]	
3	Cc1ccc(CC(C)(C)NC[C@@H](O)CO[C@H](C)c2ccccc2Oc2ccc(C(=O)O)cc2[N+](=O)[O-])cc1F [Example 2-28, 4-[2-[1-[(2R)-3-[[1-(3-fluoro-4-methylphenyl)-2-methylpropan-2-yl]amino]-2-hydroxypropoxy]ethyl]phenoxy]-3-nitrobenzoic acid]	
17	CC(OC[C@H](O)CNC(C)(C)Cc1ccc2ccccc2c1)c1ccccc1OCc1cccc(C(=O)O)c1 (stereo partly drawn) [Example 2-21, 3-[[2-[1-[(2R)-3-[[1-(naphthalen-2-yl)-2-methylpropan-2-yl]amino]-2-hydroxypropoxy]ethyl]phenoxy]methyl]benzoic acid]	
16	Cc1ccc(CC(C)(C)NC[C@@H](O)CO[C@H](C)c2ccccc2Oc2ccc(C(=O)O)c(Cl)c2)cc1F [Example 2-31, 4-[2-[1-[(2R)-3-[[1-(3-fluoro-4-methylphenyl)-2-methylpropan-2-yl]amino]-2-hydroxypropoxy]ethyl]phenoxy]-2-chlorobenzoic acid]	
17	Cc1ccc(CC(C)(C)NC[C@@H](O)COC(C)c2ccccc2Oc2ccc(C(=O)O)cc2)cc1F (stereo partly drawn) [Example 2-7, 4-[2-[1-[(2R)-3-[[1-(3-fluoro-4-methylphenyl)-2-methylpropan-2-yl]amino]-2-hydroxypropoxy]ethyl]phenoxy]benzoic acid]	
16	Cc1cc(C(=O)O)cc(-c2ccccc2[C@@H](C)OC[C@H](O)CNC(C)(C)Cc2ccc3ccccc3c2)c1 [Example 1-9, 3-methyl-2′-[1-[(2R)-3-[[1-(naphthalen-2-yl)-2-methylpropan-2-yl]amino]-2-hydroxypropoxy]ethyl]biphenyl-5-carboxylic acid]	
